According to patent US8026235B1, “Pyridyl benzoxazine derivatives, pharmaceutical composition comprising the same, and use thereof” (Daewoong Pharmaceutical Co., Ltd., priority 2010, dated 2011):
Where two headings read alike, the source gives them in different places.

Columns and labels:
[1] = test system: PBQ-induced writhing in ICR male mice; assay: Phenyl-p-quinone (PBQ)-induced writhing experiment using mice (effect on pain); assay type: in vivo; details: oral, PBQ (0.02%) i.p. after 1 hour; for I.A. (inhibitory activity), % inhibition rate class: writhing counted for 10 min
Method: In order to evaluate the effect on pain of the compounds prepared in the Examples 1 to 9, behaviors such as twisting or writhing of body resulted from pain were verified by the phenyl-p-quinone (PBQ)-induced writhing experiment using mice.
5 week-old ICR male mice were used as experimental animals and PBQ (0.02%), as a chemical stimulator. The suspensions of 20 mg of the compounds of the present invention and an excipient such as Na-CMC (sodium carboxymethyl cellulose) in 10 mL of saline were used as test compounds. The test compounds were orally administered to the mice and after 1 hour, PBQ was intraperitoneally administrated in an amount of 10 mL per kg of body weight. The writhing number of each mouse was measured for 10 min starting from 5 min after the administration, and the analgesic effect was verified by counting the reduced number compared to the control group administered with only excipient and calculating the % inhibitory rate according to the following Formula 2. Also, equivalent amounts of SB-705498 were administered as a reference compound for the comparison of the effect on pain between SB-705498 and the compounds of the present invention. % inhibition rate=(writhing # of control group−writhing # of test group)/writhing # of control group×100 [Formula 2]
The inhibitory activity was evaluated from the obtained % inhibition rate, according to the following parameters.

[2] = test system: SD rats (Sprague-Dawley rats); assay: Assay for body temperature change (rectal temperature) in SD rats; assay type: in vivo; details: single oral administration, rectal temperature up to 8 hr
Method: With the knowledge that some TRPV1 antagonists show the side effect of increasing the body temperature (Gavva et al., 2008, Pain, 136, 202-210), changes in body temperature associated with the compounds prepared in the Examples of the present invention were assessed.
7-week-old SD rats (Sprague-Dawley rats) were employed for this evaluation. Each of the compounds of the Examples was orally administered once at a dose of 10 ml/kg by compulsion. Before administration, the compounds were suspended, together with the excipient Na-CMC (sodium carboxymethyl cellulose), in saline 10 mL. Rectal temperatures of the rats were measured 1 hr and immediately (0 hr) prior to administration, and at the 30 min, 1 hr, 2 hr, 4 hr, 6 hr and 8 hr marks after administration using a thermometer (Shibaura Electronic Corporation, TD-300). The data were expressed as mean values ±S.E.M. Statistical data was analyzed by one way ANOVA, and statistical significance was analyzed in comparison with the excipient-treated control using Dunnett's t-test. Meanwhile, N-(4-(6-(4-(trifluoromethyl)phenyl)[…])benzo[d]thiazol-2-yl)acetamide (hereinafter referred to as “AMG-517”) was used at a dose of 3 mg/kg, as a positive control.

[3] = target: T1, human vanilloid-1 (TRPV1) (Homo sapiens, UniProt Q8NER1); assay: Inhibitory effect on capsaicin-stimulated calcium influx via a vanilloid receptor in hVR-1-HEK293 cells (Fluo-3/AM); assay type: cell-based; details: 1 μM capsaicin
T1 construct: expressed in transfected cells; host or cells: HEK293 Tet-on (hVR-1-HEK293), expression induced with doxycycline
T1 sequence (Q8NER1 whole entry): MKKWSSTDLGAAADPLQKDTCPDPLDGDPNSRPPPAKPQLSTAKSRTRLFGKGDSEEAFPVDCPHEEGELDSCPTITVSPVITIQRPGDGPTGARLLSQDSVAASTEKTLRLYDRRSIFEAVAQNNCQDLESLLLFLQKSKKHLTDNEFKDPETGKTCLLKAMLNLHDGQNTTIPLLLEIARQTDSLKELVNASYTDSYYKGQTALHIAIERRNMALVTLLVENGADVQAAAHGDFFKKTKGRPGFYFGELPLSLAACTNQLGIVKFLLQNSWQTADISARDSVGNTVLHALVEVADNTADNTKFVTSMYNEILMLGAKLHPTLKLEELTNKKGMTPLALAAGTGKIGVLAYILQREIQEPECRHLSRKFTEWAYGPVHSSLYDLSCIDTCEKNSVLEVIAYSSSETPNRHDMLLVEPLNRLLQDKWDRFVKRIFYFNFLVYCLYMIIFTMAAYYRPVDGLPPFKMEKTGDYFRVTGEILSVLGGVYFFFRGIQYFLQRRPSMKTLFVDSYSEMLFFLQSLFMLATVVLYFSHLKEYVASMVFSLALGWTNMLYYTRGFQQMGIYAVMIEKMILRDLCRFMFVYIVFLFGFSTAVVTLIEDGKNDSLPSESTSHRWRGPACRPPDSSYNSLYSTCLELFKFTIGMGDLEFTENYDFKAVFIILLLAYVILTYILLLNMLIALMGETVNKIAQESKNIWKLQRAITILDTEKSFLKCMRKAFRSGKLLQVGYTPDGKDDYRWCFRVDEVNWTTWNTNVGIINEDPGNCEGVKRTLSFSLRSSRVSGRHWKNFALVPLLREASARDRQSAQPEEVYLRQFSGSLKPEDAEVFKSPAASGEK
Excerpt: In order to confirm the antagonistic activities of the inventive compounds, inhibitory effects of the compounds on calcium influx were examined as follows.
hVR-1-HEK293 cell line is a human embryonic kidney (HEK) cell 293 Tet-on strain transformed with a human vanilloid-1 gene (pTRE2hyg-hVR-1 7.8 kb). The cell line can modulate the expression of TRPV1, depending on whether doxycycline, a derivative of tetracycline, is present or not.
In order to elucidate the inhibitory effect on calcium influx, the expression of TRPV1 was induced by culturing hVR-1-HEK293 cell line in a medium containing doxycycline for 2 days.
Specifically, hVR-1-HEK293 cells were cultured in a T75 flask to about 80% confluency, separated from the flask by treating with trypsin solution, and then collected by centrifugation. The cells were suspended in a medium containing 1 μg/mL of doxycycline, and the resulting suspension was diluted to a concentration of 2˜4×10^5 cells/mL 100 μL of the cell suspension was placed in each well of a 96-well black plate. The cells were cultured in 5% CO2 incubator at 37° C. for 2 days, and used for the following procedure.
The compounds, prepared in the Examples 1 to 9 of the present invention, were dissolved in dimethyl sulfoxide (DMSO) to obtain compound samples.
The cells prepared in 1) above were cultured at 37° C. for 90 min in a solution containing Fluo-3/AM, a fluorescent dye, as a calcium indicator so that the fluorescent dye was permeated into the cells. Then the cells were washed three times with D-PBS (Dulbecco's phosphate buffered saline) containing 10 mM HEPES (4-(2-hydroxyethyl)-1-piperazine ethanesulfonic acid) to remove the residual fluorescent dye. 193 μL of D-PBS was added to each well, followed by addition of various concentrations (0.015˜2000 nM) of the compounds. In order to stimulate calcium influx through a vanilloid receptor, the cells were treated with 1 μM of capsaicin. The inhibitory effect of various concentrations (0.015˜2000 nM) of compounds on intracellular calcium influx was measured by using a fluorimeter. Equivalent amounts of (R)-1-(2-bromophenyl)-3-(1-(5-(trifluoromethyl)pyridin-2-yl)pyrrolidin-3-yl)urea (also, referred to SB-705498) was used as a control group. The obtained data were input to the Hill equation represented by the following formula I and the values were analyzed: Intracellular calcium influx=(florescent intensity of experimental group−florescent intensity of background)/(florescent intensity of positive control−florescent intensity of background)×100 [Formula 1]
The inhibitory activities were evaluated from the obtained intracellular calcium influx values according to the following criteria.

[4] = compounds 0.015˜2000 nM, read-out: I.A. (inhibitory activity), IC50 class

Row | Structure (SMILES) | I.A. (inhibitory activity), % inhibition rate class [1] | Change in Body Temp. [2] | IC50 [3, 4] [nM] | % inhibition rate of writhing [1] [%] | IC50 ([3]; read-out: IC50 on calcium influx) [nM]
1 | COc1ccc(N2CCOc3c(-c4nc5ccc(C(C)(C)C)cc5[nH]4)cccc32)nc1 [Example 1, 8-(6-tert-Butyl-1H-benzo[d]imidazol-2-yl)-4-(5-methoxypyridin-2-yl)-3,4-dihydro-2H-benzo[b][1,4]oxazine] | ++ (20˜50%) | +/− (±<0.5° C.) | 101 to 500 | – | –
2 | COc1ccc(N2c3cccc(-c4nc5ccc(C(F)(F)F)cc5[nH]4)c3OC[C@@H]2CO)nc1 [Example 2, (S)-(4-(5-methoxypyridin-2-yl)-8-(6-(trifluoromethyl)-1H-benzo[d]imidazol-2-yl)-3,4-dihydro-2H-benzo[b][1,4]oxazin-3-yl)methanol] | ++ (20˜50%) | + (0.5^~1.0° C.) | 20 to 100 | – | –
3 | COc1ccc(N2c3cccc(-c4nc5cc(Cl)c(Cl)cc5[nH]4)c3OC[C@@H]2CO)nc1 [Example 3, (S)-(8-(5,6-dichloro-1H-benzo[d]imidazol-2-yl)-4-(5-methoxypyridin-2-yl)-3,4-dihydro-2H-benzo[B][1,4]oxazin-3-yl)methanol] | ++ (20˜50%) | +/− (±<0.5° C.) | 20 to 100 | – | –
4 | COc1ccc(N2c3cccc(-c4nc5ccc(OC(F)(F)F)cc5[nH]4)c3OC[C@@H]2CO)nc1 [Example 4, (S)-(4-(5-methoxypyridin-2-yl)-8-(6-(trifluoromethoxy)-1H-benzo[d]imidazol-2-yl)-3,4-dihydro-2H-benzo[b][1,4]oxazin-3-yl)methanol] | ++ (20˜50%) | +/− (±<0.5° C.) | 20 to 100 | – | –
5 | COc1ccc(N2c3cccc(-c4nc5c(Br)cc(OC(F)(F)F)cc5[nH]4)c3OC[C@@H]2CO)nc1 [Example 5, (S)-(8-(4-bromo-6-(trifluoromethoxy)-1H-benzo[d]imidazol-2-yl)-4-(5-methoxypyridin-2-yl)-3,4-dihydro-2H-benzo[B][1,4]oxazin-3-yl)methanol] | +++ (51-80%) | + (0.5^~1.0° C.) | < 20 | – | –
6 | COc1ccc(N2c3cccc(-c4nc5cc(F)c(Cl)cc5[nH]4)c3OC[C@@H]2CO)nc1 [Example 6, (S)-(8-(6-chloro-5-fluoro-1H-benzo[d]imidazol-2-yl)-4-(5-methoxypyridin-2-yl)-3,4-dihydro-2H-benzo[b][1,4]oxazin-3-yl)methanol] | +++ (51-80%) | +/− (±<0.5° C.) | 20 to 100 | – | –
7 | COc1ccc(N2c3cccc(-c4nc5c(Br)cc(C(F)(F)F)cc5[nH]4)c3OC[C@@H]2CO)nc1 [Example 7, (S)-(8-(4-bromo-6-(trifluoromethyl)-1H-benzo[d]imidazol-2-yl)-4-(5-methoxypyridin-2-yl)-3,4-dihydro-2H-benzo[b][1,4]oxazin-3-yl)methanol] | ++ (20˜50%) | + (0.5^~1.0° C.) | 101 to 500 | – | –
8 | COc1ccc(N2c3cccc(-c4nc5c(Cl)cc(C(F)(F)F)cc5[nH]4)c3OC[C@@H]2CO)nc1 [Example 8, (S)-(8-(4-chloro-6-(trifluoromethyl)-1H-benzo[d]imidazol-2-yl)-4-(5-methoxypyridin-2-yl)-3,4-dihydro-2H-benzo[b][1,4]oxazin-3-yl)methanol] | +++ (51-80%) | +/− (±<0.5° C.) | 20 to 100 | – | –
9 | COc1ccc(N2c3cccc(-c4nc5c(Br)cc(Br)cc5[nH]4)c3OC[C@@H]2CO)nc1 [Example 9, (S)-(8-(4,6-dibromo-1H-benzo[d]imidazol-2-yl)-4-(5-methoxypyridin-2-yl)-3,4-dihydro-2H-benzo[b][1,4]oxazin-3-yl)methanol] | ++ (20˜50%) | + (0.5^~1.0° C.) | 101 to 500 | – | –
10 | O=C(Nc1ccccc1Br)N[C@@H]1CCN(c2ccc(C(F)(F)F)cn2)C1 [SB-705498, (R)-1-(2-bromophenyl)-3-(1-(5-(trifluoromethyl)pyridin-2-yl)pyrrolidin-3-yl)urea, reference compound] | – | – | – | < 20 | 100 to 150
